Experimental data from ChEMBL document CHEMBL1777766, “Design, synthesis and in vitro antibacterial activity of 7-(4-alkoxyimino-3-aminomethylpiperidin-1-yl)fluoroquinolone derivatives” (Bioorg Med Chem Lett, 2011).
Values after ≈ are worked out from the molar mass of the structure shown.

Experiments:
Enterococcus faecalis [1] = experiment: Antibacterial activity against Enterococcus faecalis ATCC 51299; format: functional
Escherichia coli [2] = experiment: Antibacterial activity against Escherichia coli ATCC 25922; format: functional
Morganella morganii = experiment: Antibacterial activity against Morganella morganii 49086; format: functional
Proteus vulgaris = experiment: Antibacterial activity against Proteus vulgaris 56; format: functional
Klebsiella aerogenes = experiment: Antibacterial activity against Enterobacter aerogenes 45102; format: functional
[3] = Cytotoxicity against african green monkey Vero cells after 24 hrs; format: cell-based; details: chlorocebus sabaeus
Staphylococcus aureus [4] = experiment: Antibacterial activity against methicillin-resistant Staphylococcus aureus 08-52; format: functional
Enterobacter cloacae = experiment: Antibacterial activity against Enterobacter cloacae 45301; format: functional
Enterococcus faecalis [5] = experiment: Antibacterial activity against vancomycin-resistant Enterococcus faecalis EFL1004; format: functional
Pseudomonas aeruginosa [6] = experiment: Ratio of MIC for compound to MIC for GMFX against Pseudomonas aeruginosa 17; format: functional
Streptococcus pneumoniae [7] = experiment: Antibacterial activity against Streptococcus pneumoniae ATCC 6301; format: functional
Streptococcus pyogenes = experiment: Antibacterial activity against Streptococcus pyogenes 556; format: functional
Pseudomonas aeruginosa [8] = experiment: Ratio of MIC for compound to MIC for CPFX against Pseudomonas aeruginosa 17; format: functional
Escherichia coli [9] = experiment: Antibacterial activity against Extended spectrum beta-lactamase producing Escherichia coli 08-5; format: functional
Pseudomonas aeruginosa [10] = experiment: Antibacterial activity against Pseudomonas aeruginosa 17; format: functional
Staphylococcus aureus [11] = experiment: Antibacterial activity against Staphylococcus aureus ATCC 13709; format: functional
Providencia rettgeri = experiment: Antibacterial activity against Proteus rettgeri 49006; format: functional
Streptococcus pneumoniae [12] = experiment: Antibacterial activity against penicillin-resistant Streptococcus pneumoniae 08-2; format: functional
Salmonella typhi = experiment: Antibacterial activity against Bacillus typhi 50035; format: functional, Salmonella enterica subsp. enterica serovar Typhi; details: Salmonella enterica
Pseudomonas aeruginosa [13] = experiment: Ratio of MIC for compound to MIC for LVFX against Pseudomonas aeruginosa 17; format: functional
Klebsiella pneumoniae = experiment: Antibacterial activity against Klebsiella pneumoniae ATCC 700603; format: functional
Staphylococcus aureus [14] = experiment: Antibacterial activity against methicillin-sensitive Staphylococcus aureus 08-49; format: functional
[15] = system: Staphylococcus epidermidis; experiment: Antibacterial activity against Staphylococcus epidermidis ATCC 12228; format: functional
[16] = system: Staphylococcus epidermidis; experiment: Antibacterial activity against methicillin-sensitive Staphylococcus epidermidis 08-17; format: functional
[17] = system: Acinetobacter calcoaceticus; experiment: Antibacterial activity against Acinetobacter calcoaceticus 25001; format: functional
Shigella sonnei = experiment: Antibacterial activity against Shigella sonnei 51592; format: functional
[18] = system: Staphylococcus epidermidis; experiment: Antibacterial activity against methicillin-resistant Staphylococcus epidermidis 08-18; format: functional
Serratia marcescens = experiment: Antibacterial activity against Serratia marcescens 41002; format: functional

Compound | MIC (Enterococcus faecalis [1]) [µg/mL] | MIC (Escherichia coli [2]) [µg/mL] | MIC (Morganella morganii) [µg/mL] | MIC (Proteus vulgaris) [µg/mL] | MIC (Klebsiella aerogenes) [µg/mL] | CC50 at 24 h [3] [µg/mL] | MIC (Staphylococcus aureus [4]) [µg/mL] | MIC (Enterobacter cloacae) [µg/mL] | MIC (Enterococcus faecalis [5]) [µg/mL] | Ratio (Pseudomonas aeruginosa [6]) | MIC (Streptococcus pneumoniae [7]) [µg/mL] | MIC (Streptococcus pyogenes) [µg/mL] | Ratio (Pseudomonas aeruginosa [8]) | MIC (Escherichia coli [9]) [µg/mL] | MIC (Pseudomonas aeruginosa [10]) [µg/mL] | MIC (Staphylococcus aureus [11]) [µg/mL] | MIC (Providencia rettgeri) [µg/mL] | MIC (Streptococcus pneumoniae [12]) [µg/mL] | MIC (Salmonella typhi) [µg/mL] | Ratio (Pseudomonas aeruginosa [13]) | other results
CO/N=C1\CCN(c2nc3c(cc2F)c(=O)c(C(=O)O)cn3-c2ccc(F)cc2F)CC1CN (racemic) | 2 (≈ 4.21 µM) | 1 (≈ 2.1 µM) | 4 (≈ 8.41 µM) | 8 (≈ 16.8 µM) | 2 (≈ 4.21 µM) | 96 (≈ 202 µM) | 2 (≈ 4.21 µM) | 2 (≈ 4.21 µM) | 4 (≈ 8.41 µM) | 2 | 1 (≈ 2.1 µM) | 1 (≈ 2.1 µM) | 2 | > 128 | 4 (≈ 8.41 µM) | 0.5 (≈ 1.05 µM) | 8 (≈ 16.8 µM) | 0.5 (≈ 1.05 µM) | 2 (≈ 4.21 µM) | 2 | MIC (Klebsiella pneumoniae): 32 µg/mL (≈ 67.3 µM); MIC (Staphylococcus aureus [14]): 0.25 µg/mL (≈ 0.526 µM); MIC [15]: 0.5 µg/mL (≈ 1.05 µM); MIC [16]: 2 µg/mL (≈ 4.21 µM); MIC [17]: 4 µg/mL (≈ 8.41 µM); MIC (Shigella sonnei): 2 µg/mL (≈ 4.21 µM); MIC [18]: 0.5 µg/mL (≈ 1.05 µM); MIC (Serratia marcescens): 8 µg/mL (≈ 16.8 µM)
CCO/N=C1\CCN(c2nc3c(cc2F)c(=O)c(C(=O)O)cn3-c2ccc(F)cc2F)CC1CN (racemic) | 1 (≈ 2.04 µM) | 2 (≈ 4.09 µM) | 4 (≈ 8.17 µM) | 4 (≈ 8.17 µM) | 2 (≈ 4.09 µM) | 72.6 (≈ 148 µM) | 1 (≈ 2.04 µM) | 2 (≈ 4.09 µM) | 4 (≈ 8.17 µM) | 2 | 2 (≈ 4.09 µM) | 4 (≈ 8.17 µM) | 2 | > 128 | 4 (≈ 8.17 µM) | 0.25 (≈ 0.511 µM) | 8 (≈ 16.3 µM) | 0.5 (≈ 1.02 µM) | 2 (≈ 4.09 µM) | 2 | MIC (Klebsiella pneumoniae): 32 µg/mL (≈ 65.4 µM); MIC (Staphylococcus aureus [14]): 0.25 µg/mL (≈ 0.511 µM); MIC [15]: 0.25 µg/mL (≈ 0.511 µM); MIC [16]: 1 µg/mL (≈ 2.04 µM); MIC [17]: 4 µg/mL (≈ 8.17 µM); MIC (Shigella sonnei): 2 µg/mL (≈ 4.09 µM); MIC [18]: 0.25 µg/mL (≈ 0.511 µM); MIC (Serratia marcescens): 16 µg/mL (≈ 32.7 µM)
